Data taken from ChEMBL document CHEMBL4041522, “Comprehensive review on various strategies for antimalarial drug discovery” (2017).

Experiments:
Type in all cases: functional
[1] = In vivo antiparasitic activity against Pneumocystis sp. assessed as fever clearance time
[2] = In vivo antiparasitic activity against Pneumocystis sp. assessed as parasite clearance time
[3] = In vivo antiparasitic activity against Babesia sp. assessed as fever clearance time
Plasmodium [4] = assay: In vivo antiparasitic activity against Plasmodium sp. assessed as parasite clearance time
[5] = In vivo antiparasitic activity against Babesia sp. assessed as parasite clearance time
[6] = In vivo antiparasitic activity against Toxoplasma sp. assessed as parasite clearance time
[7] = In vivo antiparasitic activity against Toxoplasma sp. assessed as fever clearance time
Plasmodium [8] = assay: In vivo antiparasitic activity against Plasmodium sp. assessed as fever clearance time

## CCC[C@@H]1C[C@@H](C(=O)N[C@@H]([C@H]2O[C@H](SC)[C@H](O)[C@@H](O)[C@H]2O)[C@H](C)Cl)N(C)C1 [CLINDAMYCIN]
[1]
  Time: 3 to 5 days
[2]
  Time: 4 to 6 days
[3]
  Time: 3 to 5 days
Plasmodium [4]
  Time: 4 to 6 days
[5]
  Time: 4 to 6 days
[6]
  Time: 4 to 6 days
[7]
  Time: 3 to 5 days
Plasmodium [8]
  Time: 3 to 5 days
